Columns and labels:
MIA-PaCa-2 cells = assay: Cancer cell proliferation inhibition (Cell Counting Kit-8), pancreatic cancer cell line; format: cell-based; details: 1000 nM, cultured seven to 11 days; for inhibition at 1 µM: Homo sapiens, MIA PaCa-2, 264 h, read-out: % inhibition rate MIA-Paca2
Outline: (§1)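 Single-concentration test: 1000 nM compound, 7-11 day culture after seeding 100 to 1,000 cells per well in 10% FBS medium. Percent inhibition derived from Cell Counting Kit-8 signal relative to untreated control.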

Lovo cells = assay: Cancer cell proliferation inhibition (Cell Counting Kit-8), colorectal cancer cell line; format: cell-based; details: 1000 nM, cultured seven to 11 days; for inhibition at 1 µM: Homo sapiens, LoVo, 264 h, read-out: % inhibition rate LoVo
Outline: as §1

G401 cells = assay: Cancer cell proliferation inhibition (Cell Counting Kit-8), rhabdoid tumor cell line; format: cell-based; details: 1000 nM, cultured seven to 11 days; for inhibition at 1 µM: Homo sapiens, G-401, 264 h, read-out: % inhibition rate G401
Outline: (§2)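 Single 1000 nM dose of test substance, applied to cells seeded at 100–1,000 per well in 10% FBS medium, then culture for seven to 11 days. CCK-8 read-out; inhibition rate expressed as percent relative to untreated control.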

NCI-H1299 cells = assay: Cancer cell proliferation inhibition (Cell Counting Kit-8), lung cancer cell line; format: cell-based; details: 1000 nM, cultured seven to 11 days; for inhibition at 1 µM: Homo sapiens, NCI-H1299, 264 h, read-out: % inhibition rate NCI-H129 9
Outline: as §1

EZH1 = EZH1 (Homo sapiens, UniProt Q92800); assay: AlphaLISA enzyme activity inhibition, EZH1; format: biochemical; details: 5nM test substance
Chain of EZH1 (Q92800 whole entry, species assumed): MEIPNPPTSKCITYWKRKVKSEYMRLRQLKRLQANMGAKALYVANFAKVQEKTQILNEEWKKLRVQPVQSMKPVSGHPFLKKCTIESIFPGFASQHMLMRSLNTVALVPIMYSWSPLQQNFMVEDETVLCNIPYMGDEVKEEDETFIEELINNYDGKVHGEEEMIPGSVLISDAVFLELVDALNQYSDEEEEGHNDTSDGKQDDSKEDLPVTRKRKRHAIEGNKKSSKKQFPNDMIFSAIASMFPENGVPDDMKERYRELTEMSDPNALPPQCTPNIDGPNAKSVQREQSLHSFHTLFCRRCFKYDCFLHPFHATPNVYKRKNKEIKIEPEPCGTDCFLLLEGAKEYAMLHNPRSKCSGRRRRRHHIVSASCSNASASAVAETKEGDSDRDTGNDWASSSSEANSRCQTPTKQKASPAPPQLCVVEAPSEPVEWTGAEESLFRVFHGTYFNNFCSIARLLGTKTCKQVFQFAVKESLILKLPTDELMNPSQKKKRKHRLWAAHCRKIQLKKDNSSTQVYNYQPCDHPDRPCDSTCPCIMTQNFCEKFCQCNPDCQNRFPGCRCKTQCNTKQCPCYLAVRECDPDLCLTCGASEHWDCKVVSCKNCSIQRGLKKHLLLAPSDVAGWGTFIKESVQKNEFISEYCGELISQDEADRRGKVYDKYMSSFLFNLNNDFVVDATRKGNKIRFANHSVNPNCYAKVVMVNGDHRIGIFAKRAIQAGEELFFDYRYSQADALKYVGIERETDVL
Chain of EZH1 (O75530 whole entry partner, species assumed): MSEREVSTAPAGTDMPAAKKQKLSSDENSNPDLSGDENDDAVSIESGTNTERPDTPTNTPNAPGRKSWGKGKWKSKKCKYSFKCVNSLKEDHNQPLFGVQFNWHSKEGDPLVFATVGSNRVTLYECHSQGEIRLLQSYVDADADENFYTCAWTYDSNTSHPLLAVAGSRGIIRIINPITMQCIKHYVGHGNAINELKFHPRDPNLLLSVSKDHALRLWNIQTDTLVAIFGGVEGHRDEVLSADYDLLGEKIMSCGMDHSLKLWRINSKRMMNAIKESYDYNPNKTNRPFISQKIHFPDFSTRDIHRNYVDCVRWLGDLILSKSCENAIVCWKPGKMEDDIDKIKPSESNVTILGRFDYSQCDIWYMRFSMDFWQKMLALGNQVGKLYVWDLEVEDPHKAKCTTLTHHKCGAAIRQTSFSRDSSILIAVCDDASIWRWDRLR
Chain of EZH1 (Q15022 whole entry partner, species assumed): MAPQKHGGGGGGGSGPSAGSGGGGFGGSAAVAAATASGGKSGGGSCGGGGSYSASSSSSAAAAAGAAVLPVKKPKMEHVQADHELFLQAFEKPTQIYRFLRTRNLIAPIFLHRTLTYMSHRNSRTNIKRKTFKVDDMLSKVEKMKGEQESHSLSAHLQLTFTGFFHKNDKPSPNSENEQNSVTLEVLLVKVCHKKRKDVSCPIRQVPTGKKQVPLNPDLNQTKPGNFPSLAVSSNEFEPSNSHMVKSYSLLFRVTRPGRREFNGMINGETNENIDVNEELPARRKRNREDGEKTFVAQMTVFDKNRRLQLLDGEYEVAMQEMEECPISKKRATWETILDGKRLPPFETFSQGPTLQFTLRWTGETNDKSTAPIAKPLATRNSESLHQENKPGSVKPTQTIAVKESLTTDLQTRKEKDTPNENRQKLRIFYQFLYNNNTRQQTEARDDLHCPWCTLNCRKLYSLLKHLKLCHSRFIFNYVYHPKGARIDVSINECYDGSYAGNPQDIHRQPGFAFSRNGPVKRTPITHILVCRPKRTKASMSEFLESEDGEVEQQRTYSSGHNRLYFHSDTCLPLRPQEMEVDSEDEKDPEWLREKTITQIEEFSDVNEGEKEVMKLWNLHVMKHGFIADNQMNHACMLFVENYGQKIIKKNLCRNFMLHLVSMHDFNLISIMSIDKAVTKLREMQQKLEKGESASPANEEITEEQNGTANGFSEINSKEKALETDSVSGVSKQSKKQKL
Outline: (§3)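 Enzyme inhibition rate was calculated relative to DMSO from AlphaLISA signal, with acceptor beads added after a 2 h methylation reaction and donor beads 1 h later. Each enzyme, EZH1 or EZH2, was pre-mixed with compound (final 5 nM or 10 nM) in Tris buffer pH 8.0 before histone H3 peptide and SAM initiated the reaction.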

MKN-45 cells = assay: Cancer cell proliferation inhibition (Cell Counting Kit-8), gastric cancer cell line; format: cell-based; details: 1000 nM, cultured seven to 11 days; for inhibition at 1 µM: Homo sapiens, MKN-45, 264 h, read-out: % inhibition rate MKN -45
Outline: as §2

SW-13 cells = assay: Cancer cell proliferation inhibition (Cell Counting Kit-8), adrenal cancer cell line; format: cell-based; details: 1000 nM, cultured seven to 11 days; for inhibition at 1 µM: Homo sapiens, SW13, 264 h, read-out: % inhibition rate SW-13
Outline: as §1

EZH2 = EZH2 (Homo sapiens, UniProt Q15910); assay: AlphaLISA enzyme activity inhibition, EZH2; format: biochemical; details: 5nM test substance
Chain of EZH2 (Q15910 whole entry, species assumed): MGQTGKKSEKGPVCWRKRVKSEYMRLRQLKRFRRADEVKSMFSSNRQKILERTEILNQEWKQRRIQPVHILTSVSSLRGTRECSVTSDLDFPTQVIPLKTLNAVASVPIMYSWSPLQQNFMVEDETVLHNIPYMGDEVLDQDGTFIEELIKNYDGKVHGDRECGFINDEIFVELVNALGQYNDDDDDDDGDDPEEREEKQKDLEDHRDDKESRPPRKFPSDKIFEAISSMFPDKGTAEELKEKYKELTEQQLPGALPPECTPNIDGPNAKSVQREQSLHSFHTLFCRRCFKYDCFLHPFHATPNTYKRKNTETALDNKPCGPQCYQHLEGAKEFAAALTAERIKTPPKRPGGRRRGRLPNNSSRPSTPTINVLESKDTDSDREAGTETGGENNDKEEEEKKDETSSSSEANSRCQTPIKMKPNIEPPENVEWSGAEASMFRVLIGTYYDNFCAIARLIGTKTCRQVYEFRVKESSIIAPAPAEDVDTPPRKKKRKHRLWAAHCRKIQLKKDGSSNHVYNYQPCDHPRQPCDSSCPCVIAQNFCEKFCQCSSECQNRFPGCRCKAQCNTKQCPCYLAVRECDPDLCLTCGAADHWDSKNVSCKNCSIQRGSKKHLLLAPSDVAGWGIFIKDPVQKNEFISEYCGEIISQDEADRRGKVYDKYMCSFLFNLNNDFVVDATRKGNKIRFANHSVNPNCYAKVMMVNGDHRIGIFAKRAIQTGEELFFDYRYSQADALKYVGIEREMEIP
Chain of EZH2 (O75530 whole entry partner, species assumed): as the sequence (O75530 whole entry partner, species assumed) above
Chain of EZH2 (Q15022 whole entry partner, species assumed): as the sequence (Q15022 whole entry partner, species assumed) above
Outline: as §3

Row | Compound | Enzyme inhibition % EZH1 (EZH1; 0.005 µM) | Enzyme inhibition % EZH2 (EZH2; 0.005 µM) | inhibition at 0.005 µM (EZH1) | inhibition at 0.005 µM (EZH2) | % inhibition rate MIA-Paca2 (MIA-PaCa-2 cells) | % inhibition rate LoVo (Lovo cells) | % inhibition rate G401 (G401 cells; 1 µM) | % inhibition rate NCI-H129 9 (NCI-H1299 cells) | % inhibition rate MKN -45 (MKN-45 cells) | % inhibition rate SW-13 (SW-13 cells) | inhibition at 1 µM (MIA-PaCa-2 cells) | inhibition at 1 µM (Lovo cells) | inhibition at 1 µM (G401 cells) | inhibition at 1 µM (NCI-H1299 cells) | inhibition at 1 µM (MKN-45 cells) | inhibition at 1 µM (SW-13 cells)
1 | CSc1cc(C)[nH]c(=O)c1CNC(=O)c1cc(-c2ccc(N3C[C@@H](C)O[C@@H](C)C3)nc2)c2c(c1C)OC(C)([C@H]1CC[C@H](N(C)C)CC1)O2 (stereo partly drawn) [Compound 1, 2-(trans-4-(dimethylamino)cyclohexyl)-7-(6-((2S,6R)-2,6-dimethylmorpholino)pyridin-3-yl)-2,4-dimethyl-N-((6-methyl-4-(methylthio)-2-oxo-1,2-dihydropyridin-3-yl)methyl)benzo[d][1,3]dioxole-5-carboxamide] | – | – | 89.1% | 98.7% | – | – | – | – | – | – | ≤ 30% | 30 to 70% | 30 to 70% | ≤ 30% | ≤ 30% | 30 to 70%
2 | CSc1cc(C)[nH]c(=O)c1CNC(=O)c1cc(-c2cnc(N3C[C@@H](C)O[C@@H](C)C3)nc2)c2c(c1C)OC(C)([C@H]1CC[C@H](N(C)C)CC1)O2 (stereo partly drawn) [Compound 2] | – | – | 82% | 92.9% | – | – | – | – | – | – | ≤ 30% | 30 to 70% | 30 to 70% | ≤ 30% | ≤ 30% | 30 to 70%
3 | CSc1cc(C)[nH]c(=O)c1CNC(=O)c1cc(-c2ccc(N3C[C@@H](C)O[C@@H](C)C3)nc2)c2c(c1C)OC(C)([C@H]1CC[C@H](N(C)CC(F)(F)F)CC1)O2 (stereo partly drawn) [Compound 20, 7-(6-((2S,6R)-2,6-dimethylmorpholino)pyridin-3-yl)-2,4-dimethyl-2-(trans-4-(methyl(2,2,2-trifluoroethyl)amino)cyclohexyl)-N-((6-methyl-4-(methylthio)-2-oxo-1,2-dihydropyridin-3-yl)methyl)benzo[d][1,3]dioxole-5-carboxamide] | – | – | 34.3% | 26.1% | – | – | – | – | – | – | ≤ 30% | ≥ 70% | 30 to 70% | ≤ 30% | 30 to 70% | ≤ 30%
4 | CSc1cc(C)[nH]c(=O)c1CNC(=O)c1cc(-c2cnc(N3C[C@@H](C)O[C@@H](C)C3)nc2)c2c(c1C)OC(C)([C@H]1CC[C@H](N(C)CC(F)(F)F)CC1)O2 (stereo partly drawn) [Compound 23, 7-(2-((2S,6R)-2,6-dimethylmorpholino)pyrimidin-5-yl)-2,4-dimethyl-2-(trans-4-(methyl(2,2,2-trifluoroethyl)amino)cyclohexyl)-N-((6-methyl-4-(methylthio)-2-oxo-1,2-dihydropyridin-3-yl)methyl)benzo[d][1,3]dioxole-5-carboxamide] | – | – | 31.4% | 34.2% | – | – | – | – | – | – | ≤ 30% | ≥ 70% | 30 to 70% | ≤ 30% | ≤ 30% | ≤ 30%
5 | COCCN(C)[C@H]1CC[C@H](C2(C)Oc3c(-c4ccc(N5C[C@@H](C)O[C@@H](C)C5)nc4)cc(C(=O)NCc4c(SC)cc(C)[nH]c4=O)c(C)c3O2)CC1 (stereo partly drawn) [Compound 24, 7-(6-((2S,6R)-2,6-dimethylmorpholino)pyridin-3-yl)-2-(trans-4-((2-methoxyethyl)(methyl)amino)cyclohexyl)-2,4-dimethyl-N-((6-methyl-4-(methylthio)-2-oxo-1,2-dihydropyridin-3-yl)methyl)benzo[d][1,3]dioxole-5-carboxamide] | – | – | 35.1% | 98.6% | – | – | – | – | – | – | ≤ 30% | ≥ 70% | 30 to 70% | ≤ 30% | ≤ 30% | 30 to 70%
6 | COCCN(C)[C@H]1CC[C@H](C2(C)Oc3c(-c4cnc(N5C[C@@H](C)O[C@@H](C)C5)nc4)cc(C(=O)NCc4c(SC)cc(C)[nH]c4=O)c(C)c3O2)CC1 (stereo partly drawn) [Compound 25, 7-(2-((2S,6R)-2,6-dimethylmorpholino)pyrimidin-5-yl)-2-(trans-4-((2-methoxyethyl)(methyl)amino)cyclohexyl)-2,4-dimethyl-N-((6-methyl-4-(methylthio)-2-oxo-1,2-dihydropyridin-3-yl)methyl)benzo[d][1,3]dioxole-5-carboxamide] | – | – | 82.4% | 97.6% | – | – | – | – | – | – | ≤ 30% | ≥ 70% | 30 to 70% | ≤ 30% | ≤ 30% | 30 to 70%

Further lines, with some results ahead:

Row | Enzyme inhibition % EZH1 (EZH1; 0.005 µM) | Enzyme inhibition % EZH2 (EZH2; 0.005 µM) | inhibition at 0.005 µM (EZH1) | inhibition at 0.005 µM (EZH2) | Compound | % inhibition rate MIA-Paca2 (MIA-PaCa-2 cells) | % inhibition rate LoVo (Lovo cells) | % inhibition rate G401 (G401 cells; 1 µM) | % inhibition rate NCI-H129 9 (NCI-H1299 cells) | % inhibition rate MKN -45 (MKN-45 cells) | % inhibition rate SW-13 (SW-13 cells) | inhibition at 1 µM (MIA-PaCa-2 cells) | inhibition at 1 µM (Lovo cells) | inhibition at 1 µM (G401 cells) | inhibition at 1 µM (NCI-H1299 cells) | inhibition at 1 µM (MKN-45 cells) | inhibition at 1 µM (SW-13 cells)
7 | 20.4% | 4.3% | – | – | CSc1cc(C)[nH]c(=O)c1CNC(=O)c1cc(-c2ccc(N3C[C@@H](C)O[C@@H](C)C3)nc2)c2c(c1C)OC(C)([C@H]1CC[C@H](N(C)CC(F)(F)F)CC1)O2 (single isomer, unassigned) [Compound 108] | + (+: ≤30%) | +++ (+++: ≥70%) | + (+: ≤30%) | + (+: ≤30%) | + (+: ≤30%) | + (+: ≤30%) | – | – | – | – | – | –
8 | – | – | 91.6% | 98.3% | CSc1cc(C)[nH]c(=O)c1CNC(=O)c1cc(-c2ccc(N3C[C@@H](C)O[C@@H](C)C3)nc2)c2c(c1C)OC(C)([C@H]1CC[C@H](N(C)C[C@H](C)O)CC1)O2 (stereo partly drawn) [Compound 29, 7-(6-((2S,6R)-2,6-dimethylmorpholino)pyridin-3-yl)-2-(trans-4-(((S)-2-hydroxypropyl)(methyl)amino)cyclohexyl)-2,4-dimethyl-N-((6-methyl-4-(methylthio)-2-oxo-1,2-dihydropyridin-3-yl)methyl)benzo[d][1,3]dioxole-5-carboxamide] | – | – | – | – | – | – | ≤ 30% | ≥ 70% | 30 to 70% | ≤ 30% | ≤ 30% | 30 to 70%
9 | – | – | 80.4% | 83.1% | CCCOCCN(C)[C@H]1CC[C@H](C2(C)Oc3c(-c4ccc(N5C[C@@H](C)O[C@@H](C)C5)nc4)cc(C(=O)NCc4c(SC)cc(C)[nH]c4=O)c(C)c3O2)CC1 (stereo partly drawn) [Compound 30, 7-(6-((2S,6R)-2,6-dimethylmorpholino)pyridin-3-yl)-2,4-dimethyl-2-(trans-4-(methyl(2-propoxyethyl)amino)cyclohexyl)-N-((6-methyl-4-(methylthio)-2-oxo-1,2-dihydropyridin-3-yl)methyl)benzo[d][1,3]dioxole-5-carboxamide] | – | – | – | – | – | – | ≤ 30% | ≥ 70% | 30 to 70% | ≤ 30% | 30 to 70% | 30 to 70%
10 | – | – | 67.3% | 75.6% | COC(CN(C)[C@H]1CC[C@H](C2(C)Oc3c(-c4ccc(N5C[C@@H](C)O[C@@H](C)C5)nc4)cc(C(=O)NCc4c(SC)cc(C)[nH]c4=O)c(C)c3O2)CC1)OC (stereo partly drawn) [Compound 31, 2-(trans-4-((2,2-dimethoxyethyl)(methyl)amino)cyclohexyl)-7-(6-((2S,6R)-2,6-dimethylmorpholino)pyridin-3-yl)-2,4-dimethyl-N-((6-methyl-4-(methylthio)-2-oxo-1,2-dihydropyridin-3-yl)methyl)benzo[d][1,3]dioxole-5-carboxamide] | – | – | – | – | – | – | ≤ 30% | ≥ 70% | 30 to 70% | ≤ 30% | 30 to 70% | 30 to 70%
11 | – | – | 74.1% | 82.6% | CSc1cc(C)[nH]c(=O)c1CNC(=O)c1cc(-c2ccc(N3C[C@@H](C)O[C@@H](C)C3)nc2)c2c(c1C)OC(C)([C@H]1CC[C@H](N(C)CC3OCCO3)CC1)O2 (stereo partly drawn) [Compound 32, 2-(trans-4-(((1,3-dioxolan-2-yl)methyl)(methyl)amino)cyclohexyl)-7-(6-((2S,6R)-2,6-dimethylmorpholino)pyridin-3-yl)-2,4-dimethyl-N-((6-methyl-4-(methylthio)-2-oxo-1,2-dihydropyridin-3-yl)methyl)benzo[d][1,3]dioxole-5-carboxamide] | – | – | – | – | – | – | ≤ 30% | ≥ 70% | 30 to 70% | 30 to 70% | 30 to 70% | 30 to 70%
12 | – | – | 37.6% | 59.1% | CSc1cc(C)[nH]c(=O)c1CNC(=O)c1cc(-c2ccc(N3C[C@@H](C)O[C@@H](C)C3)nc2)c2c(c1C)OC(C)(C1CCN(CC(F)(F)F)CC1)O2 (stereo partly drawn) [Compound 33, 7-(6-((2S,6R)-2,6-dimethylmorpholino)pyridin-3-yl)-2,4-dimethyl-N-((6-methyl-4-(methylthio)-2-oxo-1,2-dihydropyridin-3-yl)methyl)-2-(1-(2,2,2-trifluoroethyl)piperidin-4-yl)benzo[d][1,3]dioxole-5-carboxamide] | – | – | – | – | – | – | ≤ 30% | ≥ 70% | ≥ 70% | ≤ 30% | 30 to 70% | 30 to 70%

— patent EP4740948A1 (Dong Wha Pharm. Co., Ltd., priority 2023, dated 2025)
